± gives the standard deviation of the averaged measurements.
Key:
[1] = tested on: HS-PSS; experiment: % inhibition of CellTiter-Glo viability at highest tested concentration (72 h), relative to DMSO and benzethonium chloride controls; higher = more inhibition
In short: (§1)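 MPNST cell lines and primary human Schwann cells were seeded at 750–1000 cells per well into 384-well plates preprinted with each compound at five concentrations in 10-fold steps, then incubated 72 h at 37 °C, 5% CO2. CellTiter-Glo ATP luminescence gave viability, scaled between vehicle and positive-control wells, with duplicates averaged where present. Curves were fitted with a four-parameter logistic model. Percent inhibition refers to the top concentration, while drug sensitivity score and relative IC50, censored at the top concentration, come from these fits.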

[2] = tested on: HSC2 (primary human Schwann cells); experiment: as above
In short: as §1

[3] = tested on: HS-Sch-2; experiment: as above
In short: as §1

[4] = tested on: HSC1 (primary human Schwann cells); experiment: as above
In short: as §1

[5] = tested on: S1507-2; experiment: as above
In short: as §1

[6] = tested on: ST8814; experiment: as above
In short: as §1

[7] = tested on: YST-1; experiment: as above
In short: as §1

[8] = tested on: STS26T; experiment: as above
In short: as §1

[9] = tested on: S462; experiment: as above
In short: as §1

[10] = tested on: HS-PSS; experiment: drug sensitivity score (DSS, CellTox-Green cytotoxicity, 72 h) (DSS (dimensionless)); higher = more cytotoxic; extreme values may be limits of the assay
In short: (§2)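 For 72 h at 37 °C, MPNST cell lines and primary human Schwann cells were exposed in 384-well plates to five 10-fold compound dilutions. CellTox-Green, added before seeding at a final 1:1000 dilution, gave fluorescence from DNA released by disrupted cells. Signals were scaled to vehicle and positive-control wells, cultures failing plate quality control were left out, and four-parameter logistic fits were applied. Relative IC50 and drug sensitivity score were derived from the fits, with IC50 censored at the top concentration.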

[11] = tested on: HSC2 (primary human Schwann cells); experiment: as above
In short: as §2

[12] = tested on: HSC1 (primary human Schwann cells); experiment: as above
In short: as §2

[13] = tested on: S1507-2; experiment: as above
In short: as §2

[14] = tested on: ST8814; experiment: as above
In short: as §2

[15] = tested on: STS26T; experiment: as above
In short: as §2

[16] = tested on: HS-PSS; experiment: drug sensitivity score (DSS, CellTiter-Glo viability, 72 h) (DSS (dimensionless)); higher = more sensitive; extreme values may be limits of the assay
In short: as §1

[17] = tested on: HSC2 (primary human Schwann cells); experiment: as above
In short: as §1

[18] = tested on: HS-Sch-2; experiment: as above
In short: as §1

[19] = tested on: HSC1 (primary human Schwann cells); experiment: as above
In short: as §1

[20] = tested on: S1507-2; experiment: as above
In short: as §1

[21] = tested on: ST8814; experiment: as above
In short: as §1

[22] = tested on: YST-1; experiment: as above
In short: as §1

[23] = tested on: STS26T; experiment: as above
In short: as §1

[24] = tested on: S462; experiment: as above
In short: as §1

SMILES	% inhibition [1]	% inhibition [2]	% inhibition [3]	% inhibition [4]	% inhibition [5]	% inhibition [6]	% inhibition [7]	% inhibition [8]	% inhibition [9]	drug sensitivity score [10]	drug sensitivity score [11]	drug sensitivity score [12]	drug sensitivity score [13]	drug sensitivity score [14]	drug sensitivity score [15]	drug sensitivity score [16]	drug sensitivity score [17]	drug sensitivity score [18]	drug sensitivity score [19]	drug sensitivity score [20]	drug sensitivity score [21]	drug sensitivity score [22]	drug sensitivity score [23]	drug sensitivity score [24]
O=C(c1ccc(OCCN2CCCCC2)cc1)c1c(-c2ccc(O)cc2)sc2cc(O)ccc12 [Raloxifene] (max concentration tested 10000 nM)	44.5%	41.8%	85.8%	42.1%	54.55 ± 0.068%	36.5%	25.5%	41.3%	19.7 ± 3.4%	0	0	0	1.4 ± 1.7	1.85	0.897	4.8	3.34	7.33	2.17	2.99 ± 0.22	1.9	1.7	1.99	0.649 ± 0.51
Oc1ccc2c(c1)CC[C@H](c1ccccc1)[C@@H]2c1ccc(OCCN2CCCC2)cc1 [Lasofoxifene] (max concentration tested 1000 nM)	21.2%	9.44%	8.81%	17.1%	6.44 ± 1.6%	-2.62%	-1.77%	4.5%	10.5 ± 10%	0	0	0	0	0	0	1.43	0	0	0	0	0	0	0	0.222 ± 0.31
CCCS(=O)(=O)Nc1ccc(F)c(C(=O)c2c[nH]c3ncc(-c4ccc(Cl)cc4)cc23)c1F [Vemurafenib] (max concentration tested 10000 nM)	29.3%	70.7%	34.4%	70.2%	7.31 ± 3.8%	1.91%	1.68%	41.5%	12.6 ± 17%	0	0	0	0	0.417	2.82	1.03	6.66	1.24	6.16	0.879 ± 1.2	0	0	3.31	0
COc1cc2c(NC3CCN(C(C)C)CC3)nc(N3CCC(F)(F)CC3)nc2cc1OCCCN1CCCC1 [UNC0642] (max concentration tested 10000 nM)	99.3%	7.25%	100%	7.89%	101.9 ± 0.52%	99.1%	94.9%	96.5%	93 ± 3%	4.78	0	0	7.07 ± 1.3	5.37	6.03	6.56	0	6.08	0	8.23 ± 0.62	5.87	5.26	5.57	5.99 ± 0.77

— the supplement of paper PMC5579334
